The values that follow come from patent US8710228B2, “Cycloalkylamine substituted isoquinoline derivatives” (Sanofi, priority 2006, dated 2014).

In this assay the target is T1, ROCKII or ROKα (Rattus norvegicus, UniProt Q62868).
T1 construct: purchased Upstate 14-451
T1 sequence (Q62868 11-552 limits assumed): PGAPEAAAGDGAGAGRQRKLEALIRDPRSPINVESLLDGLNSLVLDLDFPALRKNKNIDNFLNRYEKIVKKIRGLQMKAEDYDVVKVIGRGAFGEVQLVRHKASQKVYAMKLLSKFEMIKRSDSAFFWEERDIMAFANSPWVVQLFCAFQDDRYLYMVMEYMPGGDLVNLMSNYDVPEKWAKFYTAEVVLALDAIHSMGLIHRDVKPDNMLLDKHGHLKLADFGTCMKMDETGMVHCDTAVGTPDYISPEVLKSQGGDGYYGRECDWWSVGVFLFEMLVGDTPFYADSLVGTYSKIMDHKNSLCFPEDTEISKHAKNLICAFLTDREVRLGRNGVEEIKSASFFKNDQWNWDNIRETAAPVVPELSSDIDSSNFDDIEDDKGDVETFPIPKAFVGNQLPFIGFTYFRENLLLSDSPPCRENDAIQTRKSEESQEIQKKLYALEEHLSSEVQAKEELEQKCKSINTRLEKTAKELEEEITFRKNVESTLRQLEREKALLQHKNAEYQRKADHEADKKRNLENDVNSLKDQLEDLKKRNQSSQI
Briefly: Determination of Rho kinase inhibition (33P-ATP, Streptavidin Flash Plate). The note with it: ATP 40 μM, activity denoted as pIC50 classes. In kind it is biochemical. On the procedure:
Determination of Rho Kinase Inhibition
To measure Rho-kinase inhibition, IC50 values were determined according to the following protocol:
Buffer: 25 mM Tris pH7.5; 0.02% BSA; 5% Glycerol; 0.008% Triton X100; 2% DMSO, 1 mM DTT; 1 mM MgCl2; 0.5 μCi/well γ^33P ATP
Enzyme: ROCKII or ROKα) (Upstate, Catalog #14-451 Lot # 24880U) 0.1 ng/μl
Final concentration of ATP in reaction mixture 40 μM
Biotinylated substrate, diluted to 0.25 μM with buffer described above (without ATP) • 1. 10 μl Tris buffer (±Inhibitor) • 2. Add 30 μL of enzyme solution • 3. Start the reaction with 30 μL of mix substrate/ATP/ATP33 • 4. Incubate for 20 min at room temperature • 5. Stop reaction with 30 μL of 50 mM EDTA • 6. Transfer 50 μL of stopped solution to Streptavidin Flash Plate plus, Perkin Elmer, SMP 103A • 7. Incubate for 30 min at RT • 8. Wash 4 times with 300 μl of PBS/0.1% Tween 20 • 9. Radioactivity in the well was determined
As to `CC1(c2ccc(CNC3CCC(Oc4ccc5cnccc5c4)CC3)cc2)NC(=O)NC1=O.O=C(O)C(F)(F)F` (mixture of isomers) [Example 38, 5-(4-{[4-(isoquinolin-6-yloxy)-cyclohexylamino]-methyl}-phenyl)-5-methyl-imidazolidine-2,4-dione], the IC50 result is on record as “+++++ (6.0 ≦ pIC50)”.
Regarding `CC(C)CN(C)C1CCC(Oc2ccc3cnccc3c2)CC1.O=C(O)C(F)(F)F` (mixture of isomers) [Example 45, Isobutyl-[4-(isoquinolin-6-yloxy)-cyclohexyl]-methyl-amine], the IC50 entry is “++++ (5.0 ≦ pIC50 < 6.0)”.
To `CN(Cc1cnn(-c2ccc(F)cc2)c1)C1CCC(Oc2ccc3cnccc3c2)CC1.O=C(O)C(F)(F)F` (mixture of isomers) [Example 52, [1-(4-Fluoro-phenyl)-1H-pyrazol-4-ylmethyl]-[4-(isoquinolin-6-yloxy)-cyclohexyl]-methyl-amine] belongs “++++ (5.0 ≦ pIC50 < 6.0)”; to `O=C(O)C(F)(F)F.c1ccc2c(CNC3CCC(Oc4ccc5cnccc5c4)CC3)cccc2c1` (mixture of isomers) [Example 54, [4-(Isoquinolin-6-yloxy)-cyclohexyl]-naphthalen-1-ylmethyl-amine], “++++ (5.0 ≦ pIC50 < 6.0)”; to `O=C(O)C(F)(F)F.c1csc(-c2nc(CNC3CCC(Oc4ccc5cnccc5c4)CC3)cs2)c1` (mixture of isomers) [Example 58, [4-(Isoquinolin-6-yloxy)-cyclohexyl]-(2-thiophen-2-yl-thiazol-4-ylmethyl)-amine], “++++ (5.0 ≦ pIC50 < 6.0)”.
To `N[C@H]1CC[C@@H](Oc2ccc3cnccc3c2Cl)CC1` [Example 13, cis-4-(5-Chloro-isoquinolin-6-yloxy)-cyclohexylamine] belongs “+++++ (6.0 ≦ pIC50)”; to `N[C@H]1CC[C@@H](Oc2ccc3cncc(Cl)c3c2)CC1` [Example 14, cis-4-(4-Chloro-isoquinolin-6-yloxy)-cyclohexylamine], “+++++ (6.0 ≦ pIC50)”.
To `N[C@H]1CC[C@@H](Oc2ccc3cnccc3c2Br)CC1` [Example 19, cis-4-(5-Bromo-isoquinolin-6-yloxy)-cyclohexylamine] belongs “+++++ (6.0 ≦ pIC50)”; to `c1cncc(CN[C@H]2CC[C@@H](Oc3ccc4cnccc4c3)CC2)c1` [Example 23, cis-[4-(Isoquinolin-6-yloxy)-cyclohexyl]-pyridin-3-ylmethyl-amine], “+++++ (6.0 ≦ pIC50)”; to `CC(C)N[C@H]1CC[C@@H](Oc2ccc3cnccc3c2)CC1` [Example 26, Isopropyl-cis-[4-(isoquinolin-6-yloxy)-cyclohexyl]-amine], “+++++ (6.0 ≦ pIC50)”.
`CCOC(=O)N1CCN(C2CCC(Oc3ccc4cnccc4c3)CC2)CC1.O=C(O)C(F)(F)F` (stereo not shown) [Example 44, 4-[4-(Isoquinolin-6-yloxy)-cyclohexyl]-piperazine-1-carboxylic acid ethyl ester]: the IC50 entry is “++++ (5.0 ≦ pIC50 < 6.0)”.
To `c1cc2cc(O[C@H]3CC[C@@H](NC4CC4)CC3)ccc2cn1` [Example 64, cis-Cyclopropyl-[4-(isoquinolin-6-yloxy)-cyclohexyl]-amine] belongs “+++++ (6.0 ≦ pIC50)”; to `CC(=O)Nc1ccc(CN[C@H]2CC[C@@H](Oc3ccc4cnccc4c3)CC2)cc1` [Example 72, cis-N-(4-{[4-(Isoquinolin-6-yloxy)-cyclohexylamino]-methyl}-phenyl)-acetamide], “+++++ (6.0 ≦ pIC50)”.
With `CN(C)/C=N/S(=O)(=O)c1cc(CN[C@H]2CC[C@@H](Oc3ccc4cnccc4c3Cl)CC2)ccc1Cl` [Example 74, 2-Chloro-5-{cis-[4-(5-chloro-isoquinolin-6-yloxy)-cyclohexylamino]-methyl}-N-dimethylaminomethylene-benzenesulfonamide], the IC50 entry is “+++++ (6.0 ≦ pIC50)”.
To `Clc1c(OC2CCC(NC3CCCCC3)CC2)ccc2cnccc12` (stereo not shown) [Example 80, [4-(5-Chloro-isoquinolin-6-yloxy)-cyclohexyl]-cyclohexyl-amine] belongs “+++++ (6.0 ≦ pIC50)”; to `Cl.N[C@H]1CC[C@@H](Oc2ccc3cnccc3c2-c2ccsc2)CC1` [Example 87, cis-4-(5-Thiophen-3-yl-isoquinolin-6-yloxy)-cyclohexylamine], “+++++ (6.0 ≦ pIC50)”.
To `C=Cc1c(O[C@H]2CC[C@@H](N)CC2)ccc2cnccc12.Cl` [Example 90, cis-4-(5-Vinyl-isoquinolin-6-yloxy)-cyclohexylamine] belongs “+++++ (6.0 ≦ pIC50)”.
To `N[C@H]1CC[C@H](Oc2c(Cl)cc3cnccc3c2Cl)CC1` [Example 96, trans-4-(5,7-Dichloro-isoquinolin-6-yloxy)-cyclohexylamine] belongs “+++++ (6.0 ≦ pIC50)”.
Regarding `N[C@H]1CC[C@@H](Oc2ccc3cnc(Nc4cccc(Cl)c4)cc3c2)CC1` [Example 147, cis-[6-(4-Amino-cyclohexyloxy)-isoquinolin-3-yl]-(3-chloro-phenyl)-amine], the IC50 entry was “++++ (5.0 ≦ pIC50 < 6.0)”.
The value for `COc1cc(Nc2cc3cc(O[C@H]4CC[C@@H](N)CC4)ccc3cn2)cc(OC)c1OC.Cl` [Example 149, cis-[6-(4-Amino-cyclohexyloxy)-isoquinolin-3-yl]-(3,4,5-trimethoxy-phenyl)-amine] was “+++++ (6.0 ≦ pIC50)”; that for `N[C@H]1CC[C@@H](Oc2ccc3cnc(Nc4cnccn4)cc3c2)CC1` [Example 150, cis-[6-(4-Amino-cyclohexyloxy)-isoquinolin-3-yl]-pyrazin-2-yl-amine] was “++++ (5.0 ≦ pIC50 < 6.0)”; that for `CCc1cncc2ccc(O[C@H]3CC[C@@H](N)CC3)cc12` [Example 156, cis-4-(4-Ethyl-isoquinolin-6-yloxy)-cyclohexylamine] was “+++++ (6.0 ≦ pIC50)”.
